This is an account of results in PMC8213057, “Targeting ALK2: An Open Science Approach to Developing Therapeutics for the Treatment of Diffuse Intrinsic Pontine Glioma” (Journal of Medicinal Chemistry, 2020).

In test [1] the test system is ALK1/ACVRL1.
The target of test [2] is RET (Homo sapiens, UniProt P07949). Nature of the test: biochemical. The conditions noted are these: read-out: % enzyme activity, 1 μM; Run 1, Run 2.
Test [3] addresses T1, JAK3 (Homo sapiens, UniProt P52333).
T1 sequence (P52333 1-1124): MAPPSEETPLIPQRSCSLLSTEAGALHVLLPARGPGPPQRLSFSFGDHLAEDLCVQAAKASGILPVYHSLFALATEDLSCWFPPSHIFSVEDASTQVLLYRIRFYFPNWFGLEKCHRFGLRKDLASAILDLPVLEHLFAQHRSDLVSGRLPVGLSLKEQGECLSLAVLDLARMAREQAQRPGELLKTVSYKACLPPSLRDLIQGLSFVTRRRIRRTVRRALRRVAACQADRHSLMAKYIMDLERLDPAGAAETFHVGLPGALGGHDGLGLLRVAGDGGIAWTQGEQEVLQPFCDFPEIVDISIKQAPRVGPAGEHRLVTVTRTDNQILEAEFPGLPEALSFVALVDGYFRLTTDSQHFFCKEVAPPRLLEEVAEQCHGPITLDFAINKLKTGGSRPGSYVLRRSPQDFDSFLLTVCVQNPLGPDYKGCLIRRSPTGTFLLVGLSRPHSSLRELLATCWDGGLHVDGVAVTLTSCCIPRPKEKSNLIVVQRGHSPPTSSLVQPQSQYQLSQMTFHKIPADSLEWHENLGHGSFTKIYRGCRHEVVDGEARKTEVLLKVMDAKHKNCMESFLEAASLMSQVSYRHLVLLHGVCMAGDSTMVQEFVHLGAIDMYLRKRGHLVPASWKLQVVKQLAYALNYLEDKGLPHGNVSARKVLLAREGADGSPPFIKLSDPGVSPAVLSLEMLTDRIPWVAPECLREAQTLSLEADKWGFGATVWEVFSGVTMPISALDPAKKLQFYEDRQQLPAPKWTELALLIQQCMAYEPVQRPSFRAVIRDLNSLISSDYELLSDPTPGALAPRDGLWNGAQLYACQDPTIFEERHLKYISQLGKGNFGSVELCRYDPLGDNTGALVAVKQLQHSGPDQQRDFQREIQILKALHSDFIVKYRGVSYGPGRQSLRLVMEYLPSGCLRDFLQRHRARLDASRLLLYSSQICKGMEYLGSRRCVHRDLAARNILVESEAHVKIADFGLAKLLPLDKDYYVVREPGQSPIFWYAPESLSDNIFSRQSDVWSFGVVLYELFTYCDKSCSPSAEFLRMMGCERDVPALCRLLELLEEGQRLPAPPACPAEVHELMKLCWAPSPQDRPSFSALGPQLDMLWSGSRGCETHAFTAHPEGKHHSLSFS
The experiment in a line: biochemical. As to conditions: read-out: % enzyme activity, 1 μM; Run 1, Run 2.

In test [4] the target is T2, EPHB2 (Homo sapiens, UniProt P29323).
T2 sequence (P29323 19-1055): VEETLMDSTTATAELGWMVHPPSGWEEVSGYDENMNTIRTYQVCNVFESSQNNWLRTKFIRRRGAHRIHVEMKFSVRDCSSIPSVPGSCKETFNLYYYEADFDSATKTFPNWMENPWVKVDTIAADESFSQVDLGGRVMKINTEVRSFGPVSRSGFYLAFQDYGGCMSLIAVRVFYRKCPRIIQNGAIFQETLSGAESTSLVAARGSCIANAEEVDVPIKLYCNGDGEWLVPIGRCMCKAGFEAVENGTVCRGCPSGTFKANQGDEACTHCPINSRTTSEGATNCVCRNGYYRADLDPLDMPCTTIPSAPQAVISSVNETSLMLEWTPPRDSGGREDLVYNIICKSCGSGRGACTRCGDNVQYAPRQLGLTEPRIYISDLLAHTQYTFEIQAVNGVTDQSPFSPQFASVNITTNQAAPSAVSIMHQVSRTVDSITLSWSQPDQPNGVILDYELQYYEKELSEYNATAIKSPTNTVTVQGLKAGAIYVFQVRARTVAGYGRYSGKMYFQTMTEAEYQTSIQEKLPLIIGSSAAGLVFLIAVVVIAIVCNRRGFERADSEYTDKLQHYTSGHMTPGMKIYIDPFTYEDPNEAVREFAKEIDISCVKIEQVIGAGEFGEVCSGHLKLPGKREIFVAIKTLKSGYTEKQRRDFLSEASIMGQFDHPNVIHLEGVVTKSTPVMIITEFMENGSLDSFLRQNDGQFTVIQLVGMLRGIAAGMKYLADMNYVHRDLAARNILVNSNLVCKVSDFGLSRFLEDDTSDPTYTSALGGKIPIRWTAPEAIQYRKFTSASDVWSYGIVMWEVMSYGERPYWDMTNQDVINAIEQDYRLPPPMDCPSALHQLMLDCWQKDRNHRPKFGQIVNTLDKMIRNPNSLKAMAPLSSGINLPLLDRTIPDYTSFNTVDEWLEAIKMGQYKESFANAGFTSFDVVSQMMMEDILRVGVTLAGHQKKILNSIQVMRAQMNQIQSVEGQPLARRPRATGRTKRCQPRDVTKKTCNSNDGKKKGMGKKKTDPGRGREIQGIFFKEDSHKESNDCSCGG
As to conditions: 1 μM; Run 1, Run 2.

Test [5] deals with OSR1/OXSR1 (Homo sapiens, UniProt O95747). As to conditions: 1 μM; Run 1, Run 2.
Test [6] concerns the target ERBB2/HER2 (Homo sapiens, UniProt P04626). As to conditions: 1 μM; Run 1, Run 2.

Molecules are shown by their SMILES. Values joined by “and” are separate entries in the source; they are usually repeats but may differ in a detail not shown here. Equal entries are not always repeated.

OSR1/OXSR1, sequence (O95747 whole entry): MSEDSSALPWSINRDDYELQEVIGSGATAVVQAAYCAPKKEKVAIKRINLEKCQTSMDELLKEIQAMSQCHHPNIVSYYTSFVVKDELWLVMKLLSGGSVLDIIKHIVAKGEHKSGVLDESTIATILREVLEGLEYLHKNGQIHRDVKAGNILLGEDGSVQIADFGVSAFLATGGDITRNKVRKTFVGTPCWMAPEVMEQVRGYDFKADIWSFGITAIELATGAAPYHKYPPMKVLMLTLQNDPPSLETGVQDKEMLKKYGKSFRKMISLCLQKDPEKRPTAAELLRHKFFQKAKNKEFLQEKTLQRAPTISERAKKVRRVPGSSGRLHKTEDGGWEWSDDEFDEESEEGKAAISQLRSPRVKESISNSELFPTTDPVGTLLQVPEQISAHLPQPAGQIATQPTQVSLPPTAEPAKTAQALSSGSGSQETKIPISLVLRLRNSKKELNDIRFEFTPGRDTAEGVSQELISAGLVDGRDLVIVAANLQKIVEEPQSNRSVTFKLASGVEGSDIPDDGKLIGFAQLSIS
RET, sequence (P07949 29-1114): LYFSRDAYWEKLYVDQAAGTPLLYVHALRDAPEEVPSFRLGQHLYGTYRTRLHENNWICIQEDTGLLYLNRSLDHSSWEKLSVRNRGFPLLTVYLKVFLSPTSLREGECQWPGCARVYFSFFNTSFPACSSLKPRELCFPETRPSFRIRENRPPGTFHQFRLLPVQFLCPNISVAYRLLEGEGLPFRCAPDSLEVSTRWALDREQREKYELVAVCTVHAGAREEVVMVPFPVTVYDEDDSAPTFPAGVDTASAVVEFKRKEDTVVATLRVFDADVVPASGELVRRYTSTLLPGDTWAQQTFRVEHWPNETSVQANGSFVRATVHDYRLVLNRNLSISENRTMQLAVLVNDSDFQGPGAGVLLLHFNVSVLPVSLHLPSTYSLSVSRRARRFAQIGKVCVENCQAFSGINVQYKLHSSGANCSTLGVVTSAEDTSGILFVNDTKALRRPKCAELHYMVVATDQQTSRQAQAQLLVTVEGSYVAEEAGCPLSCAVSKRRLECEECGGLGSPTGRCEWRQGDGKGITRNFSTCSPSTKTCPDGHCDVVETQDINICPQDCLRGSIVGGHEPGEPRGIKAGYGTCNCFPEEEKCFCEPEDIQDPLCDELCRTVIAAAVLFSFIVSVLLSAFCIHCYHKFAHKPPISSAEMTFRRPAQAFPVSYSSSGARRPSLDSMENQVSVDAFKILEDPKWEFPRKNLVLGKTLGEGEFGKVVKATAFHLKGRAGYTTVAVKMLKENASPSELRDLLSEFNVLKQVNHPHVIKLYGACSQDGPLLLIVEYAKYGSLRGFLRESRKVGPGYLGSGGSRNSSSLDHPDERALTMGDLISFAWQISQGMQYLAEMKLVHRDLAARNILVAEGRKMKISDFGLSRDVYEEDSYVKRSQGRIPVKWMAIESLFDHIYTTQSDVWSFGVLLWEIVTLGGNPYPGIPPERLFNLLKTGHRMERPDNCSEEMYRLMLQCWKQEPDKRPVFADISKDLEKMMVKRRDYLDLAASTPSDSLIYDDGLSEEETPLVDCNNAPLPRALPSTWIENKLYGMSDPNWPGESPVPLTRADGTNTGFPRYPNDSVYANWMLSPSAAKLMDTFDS
ERBB2/HER2, sequence (P04626 23-1255): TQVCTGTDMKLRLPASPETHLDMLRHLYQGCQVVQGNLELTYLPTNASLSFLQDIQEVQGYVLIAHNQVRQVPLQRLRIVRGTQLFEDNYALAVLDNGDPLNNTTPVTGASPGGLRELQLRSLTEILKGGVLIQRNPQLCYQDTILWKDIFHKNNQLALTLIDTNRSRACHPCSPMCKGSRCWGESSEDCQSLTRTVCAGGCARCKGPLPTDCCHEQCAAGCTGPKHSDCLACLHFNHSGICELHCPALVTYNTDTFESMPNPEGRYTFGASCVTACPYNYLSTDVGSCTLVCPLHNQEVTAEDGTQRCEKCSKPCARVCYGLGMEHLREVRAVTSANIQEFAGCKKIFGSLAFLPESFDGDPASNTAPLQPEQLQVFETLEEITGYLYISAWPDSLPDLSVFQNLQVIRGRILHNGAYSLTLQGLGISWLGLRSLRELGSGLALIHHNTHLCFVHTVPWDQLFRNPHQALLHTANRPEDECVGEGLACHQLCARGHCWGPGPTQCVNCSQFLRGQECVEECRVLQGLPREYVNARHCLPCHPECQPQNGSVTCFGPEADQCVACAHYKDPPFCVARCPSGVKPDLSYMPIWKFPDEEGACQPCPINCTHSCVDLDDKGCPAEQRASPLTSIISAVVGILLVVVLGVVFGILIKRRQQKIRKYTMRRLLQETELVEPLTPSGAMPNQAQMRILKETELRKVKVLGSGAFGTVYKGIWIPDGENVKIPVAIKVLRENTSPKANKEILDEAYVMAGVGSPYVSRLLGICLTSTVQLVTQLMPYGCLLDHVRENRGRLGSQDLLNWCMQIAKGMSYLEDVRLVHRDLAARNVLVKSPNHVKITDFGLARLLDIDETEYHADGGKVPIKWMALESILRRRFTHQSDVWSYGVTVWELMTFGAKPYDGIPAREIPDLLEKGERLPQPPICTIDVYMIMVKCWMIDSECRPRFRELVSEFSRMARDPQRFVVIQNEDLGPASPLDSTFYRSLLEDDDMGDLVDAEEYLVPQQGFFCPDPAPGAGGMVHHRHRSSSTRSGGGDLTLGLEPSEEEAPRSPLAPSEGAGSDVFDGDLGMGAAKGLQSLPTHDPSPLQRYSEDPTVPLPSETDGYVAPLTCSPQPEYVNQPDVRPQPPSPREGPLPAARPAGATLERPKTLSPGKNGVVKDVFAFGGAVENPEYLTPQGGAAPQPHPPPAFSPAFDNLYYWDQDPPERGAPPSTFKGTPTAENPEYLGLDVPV

In test [1], `COc1cc(-c2cncc(-c3ccc(N4CCN(C)CC4)cc3)c2C)cc(F)c1C(N)=O` [Compound 26a, 2-Fluoro-6-methoxy-4-(4-methyl-5-(4-(4-methylpiperazin-1-yl)phenyl)pyridin-3-yl)benzamide] displayed a % enzyme activity at 1 μM of 2.65%. Moreover, the remaining activity at 1 µM in test [2] was found to be 94.4%; in test [3] it was 106%. Moreover, the “% enzyme activity” value in test [4] is given as 92.89%; in test [5], 93.34%; in test [6] it was 89.07%.

Regarding `COc1cc(-c2cncc(-c3ccc(N4C[C@@H](C)N(C)[C@@H](C)C4)cc3)c2C)cc(F)c1C(N)=O` [Compound 26c, 2-Fluoro-6-methoxy-4-(4-methyl-5-(4-((3R,5S)-3,4,5-trimethylpiperazin-1-yl)phenyl)pyridin-3-yl)benzamide], the % enzyme activity at 1 μM in test [1] was 4.67% and 4.38%. The remaining activity at 1 µM in test [2] stood at 96%; in test [3], 101%. In addition, the “% enzyme activity” value is on record as 97.40% in test [4], 94.75% in test [5] and 95.40% in test [6].
